The text below walks through data of patent US11267925B2, “Water-based polyurethane dispersions and their preparation” (Dow Global Technologies LLC, priority 2017, dated 2022).

Series [1] is described as follows: Solubility of DMPA in solvents and solvent blends (mixed on shaker, appearance observed). The format is physicochemical. The following applies: for affinity in terms of solubility toward DMPA: neat solvent, weight ratio solvent:DMPA 9:1, room temperature (23° C.), FIG. 2. As to the method:
At room temperature (23° C.), 1 gram (g) of DMPA and 9 g solvent are added into a glass bottle and mixed on a shaker for 30 minutes. After shaking, the appearance of the mixture in each bottle is observed for solubility. The solvent is either neat dialkyl amide or a blend of dialkyl amide with PROGLYDE™ DMM dipropylene glycol dimethyl ether. Blends are prepared in three blend ratios: 2:1, 1:1, and 1:2 ether:dialkyl amide.
At room temperature (23° C.), 1 g DMPA and various weights of solvent are added into a glass bottle, then mixed for 30 minutes before checking the appearance.
(§1) The vapor pressures versus temperature profiles of neat PROGLYDE™ DMM dipropylene glycol dimethyl ether, neat N,N-DMPA, and of three different blends of dipropylene glycol dimethyl ether and N,N-DMPA containing 83 wt %, 55 wt %, and 35 wt % dipropylene glycol dimethyl ether respectively are measured in an ebulliometer in the 5-760 millimeters of mercury (mmHg) pressure range by ASTM E1719 to obtain Antoine constants and the normal boiling points of pure components and blends. Pseudo-azeotropes and actual minimum boiling azeotropes are indicated by a normal boiling point which is lower than the boiling point of either of the neat components. The solubility of DMPA in these blends is also evaluated at 25° C. at the DMPA:solvent blend ratio of 1:9. The composition of the blends is detailed in Table 1 below: […]

Series [2] can be described thus: Vapor pressure versus temperature profiles and normal boiling points in ebulliometer (ASTM E1719). The format is physicochemical. As to the method:
as §1

With `COCCC(=O)N(C)C` [M3-N,N-DMPA, 3-methoxy-N,N-dimethyl propionamide], the “affinity in terms of solubility toward DMPA” value (“affinity in terms” for short) in series [1] is listed as “good affinity toward DMPA”.
With `CCN(CC)C(C)=O` [N,N-DEAC, N,N-diethylacetamide], the “affinity in terms” value in series [1] is given as “good affinity toward DMPA”.
Regarding `CCC(=O)N(C)C` [N,N-DMPA, N,N-dimethylpropionamide], in series [1] (dialkyl amide to DMPA 3:1 to 8:1, 23° C., FIG. 4), the “solubility of DMPA in N,N-DMPA at different weight ratios” value is reported as “can dissolve DMPA effectively”. In addition, the “affinity in terms” value in series [1] is on record as “good affinity toward DMPA”. The compound further registered a normal boiling point in series [2] of 175.186 °C.
As to `COCC(C)OCC(C)OC` (stereo not drawn) [dipropylene glycol dimethyl ether, reference compound], the normal boiling point in series [2] is 174.931 °C.
